Test results: patent US20100093747A1, “METHOD OF INDUCING NEGATIVE CHEMOTAXIS” (priority 2008, published 2010)
Marks after values point to notes of the source that are not given here.

System: human neutrophils
Experiment: Chemorepulsion (negative chemotaxis) of neutrophils in Neuroprobe ChemoTx plates, migrated cells quantified with Cell Titer Glo
Type: cell-based
Conditions: for chemorepulsion class mark in Tables 1-4: methods of Example 1
Experimental: Prior to beginning the assay, the following were prepared: • a. 0.5% Fetal Calf Serum (FCS) in Iscove's Modified Dulbecco's Medium (IMDM) (Assay Medium) (Both from ATCC). • b. Migratory cells at a concentration of 2×10^7 cells/ml in Assay Medium. • c. Four serial (10-fold) dilutions of the ligand of interest in Assay Medium. All stocks were diluted initially 1:100 into Assay Medium and subsequently made into 10 fold dilutions (100 uM, 10 uM, 1 uM, 0.1 uM). […] The same dilutions were followed. • 2. […] The plates were removed from packaging, leaving the membrane behind. • 4. 31 μl of the following solutions were pipetted into each well: • a. For media controls and for chemorepulsion samples, Assay Medium was used. • b. For chemoattraction samples, appropriate dilution of ligand was used. • 5. A sterile needle was used to pop any and all small bubbles present in each well. • 6. The membrane was carefully placed onto the plate, starting at one side and then slowly lowering the other edge onto the plate. • 7. 29 μl of the following were pipetted onto the top of each circle: • a. For media controls and chemoattraction samples, use Assay Medium. • b. For chemorepulsion samples, use the appropriate dilution of ligand. • 8. 2 μl of cells (40,000 cells) were added to each bubble of liquid from step 7. • 9. A needle was used to pop all air bubbles. • 10. The plate was covered with the supplied lid and incubated for the desired time at 37° C. in 5% CO2. Unless otherwise indicated, the incubation time was 1 hour for neutrophils and 3 hours for T cells. For monocytes and B cells, the incubation time was 2 hours. • 11. After the desired assay time, the liquid was removed from the top of the plate using a Kimwipe. At this point, the plate was stored (with the membrane in place) for up to 2 hours at 4° C. • 12. The membrane was carefully removed from the top of the plate and discard. The plate was examined under a microscope to look for ligand crystallization, contamination and overall migration. • 13. White read plates were preloaded with 25 ul PBS. • 14. Using a multichannel pipettor, 5 ul of Cell Titer Glo (Promega # G7572) was added to each well. • 15. Using a multichannel pipettor set at 30 ul, lysed cell solution was transferred to white read plates pre-loaded with PBS. • 16. The plate was read using the BioTek Synergy4 plate reader in order to quantify the number of migrated cells.
Compounds from the chemical analog library were screened once in CR mode as described.

Row | Compound | chemorepulsion class mark in Tables 1-4 (neutrophils) | further results
1 | COc1ccc2[nH]c(SCC(=O)Nc3ccc(Cl)cc3)nc2c1 [Compound 40] | 40* (Compounds that showed chemorepulsion that was at least 3-fold greater than media) | –
2 | COc1ccc(NC(=O)CSc2nc3cc([N+](=O)[O-])ccc3[nH]2)c(OC)c1 [Compound 33] | 33* (Compounds that showed chemorepulsion that was at least 3-fold greater than media) | –
3 | COc1ccc2[nH]c(SCC(=O)Nc3ccccc3F)nc2c1 [Compound 16] | 16* (Compounds that showed chemorepulsion that was at least 3-fold greater than media) | –
4 | COc1ccc2[nH]c(SCc3cccc(I)c3)nc2c1 [Compound 45] | 45* (Compounds that showed chemorepulsion that was at least 3-fold greater than media) | –
5 | COc1ccc2[nH]c(N3CCCC(C(=O)NCCc4ccc(Cl)cc4)C3)nc2c1 (stereo not shown) [Compound 128] | 128* (Compounds that showed chemorepulsion that was at least 3-fold greater than media) | –
6 | COCCCOc1ccnc(C[S+]([O-])c2nc3ccccc3[nH]2)c1C (stereo not shown) [rabeprazole, reference compound] | – | chemorepulsion over media (neutrophils, rabeprazole at 106 uM, FIG. 59): greater than 3 fold
7 | COc1ccc2[nH]c(SCC(=O)Nc3ccon3)nc2c1 [Compound 79] | 79* (Compounds that showed chemorepulsion that was at least 3-fold greater than media) | –
8 | CCOc1ccc2[nH]c(SCC(=O)Nc3ccccc3)nc2c1 [Compound 63] | 63* (Compounds that showed chemorepulsion that was at least 3-fold greater than media) | –
9 | CCOc1ccc2[nH]c(SCC(=O)N(c3ccccc3)C(C)C)nc2c1 [Compound 62] | 62* (Compounds that showed chemorepulsion that was at least 3-fold greater than media) | –
10 | COc1ccc2[nH]c(SCC(=O)Nc3ccccc3Br)nc2c1 [Compound 39] | 39* (Compounds that showed chemorepulsion that was at least 3-fold greater than media) | –
11 | COc1ccc2[nH]c(SCc3ccc(Cl)cc3)nc2c1 [Compound 11] | 11* (Compounds that showed chemorepulsion that was at least 3-fold greater than media) | –
12 | COc1ccc2[nH]c(SCC(=O)c3ccc4c(c3)OCO4)nc2c1 [Compound 23] | 23* (Compounds that showed chemorepulsion that was at least 3-fold greater than media) | –
13 | COc1ccc2[nH]c(SCC(=O)Nc3cc(Cl)ccc3OC)nc2c1 [Compound 37] | 37* (Compounds that showed chemorepulsion that was at least 3-fold greater than media) | –
14 | O=C(CSc1nc2cc([N+](=O)[O-])ccc2[nH]1)Nc1ccc(O)c(C(=O)O)c1 [Compound 59] | 59* (Compounds that showed chemorepulsion that was at least 3-fold greater than media) | –
15 | COc1ccc2nc([S@@+]([O-])Cc3ncc(C)c(OC)c3C)[nH]c2c1 [esomeprazole, reference compound] | – | chemorepulsion of neutrophils in response to the compound (0.048, 0.48, 4.8 or 48 uM, FIGS. 1A, 1B and 1C): showed chemorepulsion; dose dependence of the induction of chemotaxis / chemorepulsion (neutrophils, four 10-fold dilutions): dose-dependent
16 | COc1ccc2[nH]c(SCC(=O)Nc3ccc([N+](=O)[O-])cc3)nc2c1 [Compound 42] | 42* (Compounds that showed chemorepulsion that was at least 3-fold greater than media) | –
17 | COc1ccc2[nH]c(Sc3c(-c4ccccc4)c4cc(Cl)ccc4[nH]c3=O)nc2c1 [Compound 54] | 54* (Compounds that showed chemorepulsion that was at least 3-fold greater than media) | –
18 | COc1ccc2[nH]c(SCc3cnc(C)nc3N)nc2c1 [Compound 80] | 80* (Compounds that showed chemorepulsion that was at least 3-fold greater than media) | –

Row | Compound | chemorepulsion class mark in Tables 1-4 (neutrophils) | further results
19 | COc1ccc2[nH]c(SCC(=O)Nc3cc(NC(=O)CSc4nc5cc(OC)ccc5[nH]4)cc(C(=O)O)c3)nc2c1 [Compound 43] | 43* (Compounds that showed chemorepulsion that was at least 3-fold greater than media) | –
20 | CCOc1ccc2[nH]c(SCC(=O)Nc3nccs3)nc2c1 [Compound 60] | 60* (Compounds that showed chemorepulsion that was at least 3-fold greater than media) | –
21 | COc1ccc2[nH]c([S+]([O-])Cc3ncc(C)c(OC)c3C)nc2c1 (stereo not shown) [omeprazole, reference compound] | – | chemorepulsion relative to cells treated with media alone (neutrophils, omeprazole 0.1, 1, 10 and 100 uM, FIG. 2): greater than 5 fold
22 | COc1ccc2[nH]c(N3CCCC(C(=O)NCCc4ccccc4)C3)nc2c1 (stereo not shown) [Compound 157] | 157* (Compounds that showed chemorepulsion that was at least 3-fold greater than media) | –
23 | COc1ccc2[nH]c(SCC(=O)Nc3ccc(Br)cc3)nc2c1 [Compound 38] | 38* (Compounds that showed chemorepulsion that was at least 3-fold greater than media) | –
24 | COc1ccc2[nH]c(Sc3c(-c4ccccc4)c4ccc(Cl)cc4[nH]c3=O)nc2c1 [Compound 99] | 99* (Compounds that showed chemorepulsion that was at least 3-fold greater than media) | –
25 | COc1ccc2[nH]c(SCC(=O)NCc3ccccc3)nc2c1 [Compound 15] | 15* (Compounds that showed chemorepulsion that was at least 3-fold greater than media) | –
26 | COc1ccc2[nH]c(SCC(=O)Nc3ccc4c(c3)OCO4)nc2c1 [Compound 36] | 36* (Compounds that showed chemorepulsion that was at least 3-fold greater than media) | –
27 | CSc1nc2cc(Cl)c(Oc3ccc4ccccc4c3Br)cc2[nH]1 [Compound 136] | 136* (Compounds that showed chemorepulsion that was at least 3-fold greater than media) | –
28 | COc1ccc2[nH]c(Sc3ccc(C(F)(F)F)cc3[N+](=O)[O-])nc2c1 [Compound 88] | 88* (Compounds that showed chemorepulsion that was at least 3-fold greater than media) | –
29 | COc1ccc2[nH]c(SCc3ccc(Cl)c(Cl)c3)nc2c1 [Compound 22] | 22* (Compounds that showed chemorepulsion that was at least 3-fold greater than media) | –
30 | O=C(CSc1nc2cc([N+](=O)[O-])ccc2[nH]1)Nc1ccccc1F [Compound 12] | 12* (Compounds that showed chemorepulsion that was at least 3-fold greater than media) | –
31 | COc1ccc(C(=O)CSc2nc3cc(OC)ccc3[nH]2)cc1 [Compound 21] | 21* (Compounds that showed chemorepulsion that was at least 3-fold greater than media) | –
32 | COc1ccc2[nH]c(SCC(=O)Nc3nc4ccc(OC)cc4s3)nc2c1 [Compound 17] | 17* (Compounds that showed chemorepulsion that was at least 3-fold greater than media) | –
33 | O=[N+]([O-])c1ccc2nc(-c3cn4ccsc4n3)sc2c1 [Compound 132] | 132* (Compounds that showed chemorepulsion that was at least 3-fold greater than media) | –
34 | COc1ccc2[nH]c(SCC(=O)Nc3ccccc3[N+](=O)[O-])nc2c1 [Compound 41] | 41* (Compounds that showed chemorepulsion that was at least 3-fold greater than media) | –
35 | COc1ccc2[nH]c(SCC(=O)c3cc(C(C)(C)C)c(O)c(C(C)(C)C)c3)nc2c1 [Compound 20] | 20* (Compounds that showed chemorepulsion that was at least 3-fold greater than media) | –
36 | CCOc1ccc2[nH]c(SCC(=O)Nc3ccc(O)c(C(=O)O)c3)nc2c1 [Compound 58] | 58* (Compounds that showed chemorepulsion that was at least 3-fold greater than media) | –
